What all share (format): in vivo
Assay [1] deals with goosegrass (Eleusine indica). Description: Test C postemergence, goosegrass. The settings on record: for Goosegrass plant response rating: visual injury, 0 to 100 scale (0 no effect, 100 complete control). Put shortly:
(§1)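 Herbicidal effect was estimated visually on a 0–100 scale 10 or 12 days after spraying. Formulation: non-phytotoxic solvent mixture with surfactant. Timing: directed soil spray after sowing, or postemergence on seedlings bearing one or two leaves.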

The next assay has as its system soybean (Glycine max). Description: Test C preemergence, soybean. The settings on record: 0 is no effect, 100 is complete control. Put shortly: as §1
For assay [2], the system named is ducksalad (Heteranthera limosa). The assay can be described thus: Test D flooded paddy test, ducksalad. Further details: key: 0 = no effect, 100 = complete control. The conditions noted are these: 250 g ai/ha, Flood; applied to paddy water at 2-leaf stage; visual rating after 13 days; scale 0 (no effect) to 100 (complete control). Put shortly:
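Pots holding 2-leaf-stage plants were flooded 3 cm deep and dosed via the water, which stayed at that level. After 13 greenhouse days, injury was scored visually against untreated controls, 0 (none) to 100 (complete control); a dash marks no test result.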

The subject of assay [3] is horseweed (Erigeron canadensis). The assay can be described thus: Test C postemergence, horseweed. The conditions noted are these: for Horseweed plant response rating: visual injury, 0 to 100 scale (0 no effect, 100 complete control). Put shortly: as §1
In assay [4] the test system is pigweed, palmer (palmer amaranth, Amaranthus palmeri). The assay can be described thus: Test C preemergence, palmer amaranth. The settings on record: 0 is no effect, 100 is complete control. Put shortly:
as §1

Assay [5] has as its system oat, wild (wild oat, Avena fatua). The assay can be described thus: Test C preemergence, wild oat. The settings on record: 0 is no effect, 100 is complete control. Put shortly:
as §1

Assay [6] concerns blackgrass (Alopecurus myosuroides). The assay can be described thus: Test C preemergence, blackgrass. The settings on record: 0 is no effect, 100 is complete control. Put shortly: as §1
The subject of assay [7] is ragweed (common ragweed, Ambrosia artemisiifolia). The assay can be described thus: Test C preemergence, ragweed. The settings on record: 0 is no effect, 100 is complete control. Put shortly: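 Greenhouse pot test. Compounds in a non-phytotoxic solvent with surfactant were applied to a loam–sand soil mix either preemergence as a directed spray or postemergence to plants at the one- to two-leaf stage; 0–100 visual ratings followed after 10 or 12 days.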

In a further assay the test system is corn (Zea mays). Description: Test C postemergence, corn. The conditions noted are these: for Corn plant response rating: visual injury, 0 to 100 scale (0 no effect, 100 complete control).
[8] abbreviates: 125 g ai/ha Postemergence, 0 is no effect, 100 is complete control.

On to `Cc1cc(C)c(N2CCC(OCc3ccccc3)C2=O)cc1NS(=O)(=O)C(F)(F)F` (stereo not shown) [Compound 61], for which the “Goosegrass plant response rating” value in [1] (31 g ai/ha Postemergence) was determined as 40; in assay [1] (125 g ai/ha Postemergence), 90. The “Plant response rating (0 to 100 scale), Soybean” value (“Plant response rating … Soybean” for short) with soybean (Glycine max) (31 g ai/ha Preemergence) is reported as 40; with soybean (Glycine max) (125 g ai/ha Preemergence), 90. Further, in assay [2], the “Plant response rating, Ducksalad” value is given as 75. The “Horseweed plant response rating” value in [3] (31 g ai/ha Postemergence) and in assay [3] (125 g ai/ha Postemergence) was 60 in each case. Moreover, the “Plant response rating (0 to 100 scale), Pigweed, Palmer” value (from here on “Plant response rating … Palmer”) in assay [4] (31 g ai/ha Preemergence) and in assay [4] (125 g ai/ha Preemergence) was 100 throughout. The results for the “Plant response rating (0 to 100 scale), Oat, Wild” value (“Plant response rating … Wild” for short) in assay [5] (31 g ai/ha Preemergence) and in [5] (125 g ai/ha Preemergence) were 50 and 90, respectively. Further, the figures for the “Plant response rating (0 to 100 scale), Blackgrass” value (shortened to “Plant response rating … Blackgrass”) in [6] (31 g ai/ha Preemergence) and in assay [6] (125 g ai/ha Preemergence) were 60 and 90, respectively. The results for the “Plant response rating (0 to 100 scale), Ragweed” value (from here on “Plant response rating … Ragweed”) in assay [7] (31 g ai/ha Preemergence) and in assay [7] (125 g ai/ha Preemergence) were 0 and 90, respectively. For the same compound, the results for the “Corn plant response rating” value in the assay on corn (Zea mays) (31 g ai/ha Postemergence) and in the assay with corn (Zea mays) (125 g ai/ha Postemergence) were 10 and 60, respectively.

On to `CCCC(=O)OCN(c1cc(N2CCC(OC3CC3)C2=O)c(C)cc1C)S(=O)(=O)C(F)(F)F` (stereo not shown) [Compound 20], for which the “Goosegrass plant response rating” value in [1] (31 g ai/ha Postemergence) turned out to be 90. Besides, the “Plant response rating (0 to 100 scale), Goosegrass” value in assay [1] (setting [8]) is on record as 90. In addition, the “Plant response rating … Soybean” value turned out to be 70 in the assay on soybean (Glycine max) (31 g ai/ha Preemergence) and 90 with soybean (Glycine max) (125 g ai/ha Preemergence). Besides, the “Plant response rating, Ducksalad” value in [2] came out at 90. The “Horseweed plant response rating” value in assay [3] (31 g ai/ha Postemergence) was 60. Also, the “Plant response rating (0 to 100 scale), Horseweed” value in assay [3] (setting [8]) stood at 90. Also, the results for the “Plant response rating … Palmer” value in [4] (31 g ai/ha Preemergence) and in assay [4] (125 g ai/ha Preemergence) were 90 and 100, respectively. In addition, the entries for the “Plant response rating … Wild” value in assay [5] (31 g ai/ha Preemergence) and in assay [5] (125 g ai/ha Preemergence) were 60 and 100, respectively. Further, the figures for the “Plant response rating … Blackgrass” value in assay [6] (31 g ai/ha Preemergence) and in assay [6] (125 g ai/ha Preemergence) were 80 and 100, respectively. Further, the “Plant response rating … Ragweed” value in assay [7] (31 g ai/ha Preemergence) was found to be 60; in [7] (125 g ai/ha Preemergence), 90. Moreover, in the assay on corn (Zea mays) (31 g ai/ha Postemergence), the “Corn plant response rating” value is 90. Also, in the assay on corn (Zea mays) (setting [8]), the “Plant response rating (0 to 100 scale), Corn” value turned out to be 90.

Take `Cc1cc(C)c(N2CCC(OCC3CCC3)C2=O)cc1NS(=O)(=O)C(F)(F)F` (stereo not shown) [Compound 43]: the “Goosegrass plant response rating” value in assay [1] (31 g ai/ha Postemergence) was found to be 20; in assay [1] (125 g ai/ha Postemergence), 90. Moreover, the “Plant response rating … Soybean” value turned out to be 10 in the assay with soybean (Glycine max) (31 g ai/ha Preemergence) and 90 in the assay on soybean (Glycine max) (125 g ai/ha Preemergence). Also, in assay [2], the “Plant response rating, Ducksalad” value is 95. Further, the entries for the “Horseweed plant response rating” value in assay [3] (31 g ai/ha Postemergence) and in [3] (125 g ai/ha Postemergence) were 30 and 60, respectively. Besides, the entries for the “Plant response rating … Palmer” value in assay [4] (31 g ai/ha Preemergence) and in assay [4] (125 g ai/ha Preemergence) were 70 and 100, respectively. The entries for the “Plant response rating … Wild” value in assay [5] (31 g ai/ha Preemergence) and in [5] (125 g ai/ha Preemergence) were 0 and 50, respectively. The “Plant response rating … Blackgrass” value in assay [6] (31 g ai/ha Preemergence) was 40; in assay [6] (125 g ai/ha Preemergence) it was 50. In addition, the results for the “Plant response rating … Ragweed” value in assay [7] (31 g ai/ha Preemergence) and in [7] (125 g ai/ha Preemergence) were 10 and 60, respectively. In addition, the “Corn plant response rating” value with corn (Zea mays) (31 g ai/ha Postemergence) was determined as 40; in the assay on corn (Zea mays) (125 g ai/ha Postemergence), 90.

`C#CC(C)OC1CCN(c2cc(NS(=O)(=O)C(F)(F)F)c(C)cc2C)C1=O` (stereo not shown) [Compound 58]: the “Goosegrass plant response rating” value in assay [1] (31 g ai/ha Postemergence) and in assay [1] (125 g ai/ha Postemergence) was 100 throughout. The “Plant response rating … Soybean” value in the assay with soybean (Glycine max) (31 g ai/ha Preemergence) and in the assay with soybean (Glycine max) (125 g ai/ha Preemergence) was 100 in each case. For the same compound, the “Plant response rating, Ducksalad” value in assay [2] was determined as 80. Besides, the “Horseweed plant response rating” value in [3] (31 g ai/ha Postemergence) and in [3] (125 g ai/ha Postemergence) was 90 in each case. Besides, the “Plant response rating … Palmer” value in [4] (31 g ai/ha Preemergence) and in assay [4] (125 g ai/ha Preemergence) was 100 in each case. Moreover, the figures for the “Plant response rating … Wild” value in assay [5] (31 g ai/ha Preemergence) and in assay [5] (125 g ai/ha Preemergence) were 90 and 100, respectively. Further, the “Plant response rating … Blackgrass” value in assay [6] (31 g ai/ha Preemergence) is 80; in assay [6] (125 g ai/ha Preemergence), 100. Also, the “Plant response rating … Ragweed” value was 80 in assay [7] (31 g ai/ha Preemergence) and 90 in assay [7] (125 g ai/ha Preemergence). The “Corn plant response rating” value in the assay with corn (Zea mays) (31 g ai/ha Postemergence) is 60; in the assay on corn (Zea mays) (125 g ai/ha Postemergence), 90.

Turning to `Cc1cc(C)c(N2CCC(OCC3CCCO3)C2=O)cc1NS(=O)(=O)C(F)(F)F` (stereo not shown) [Compound 42], the “Goosegrass plant response rating” value in [1] (31 g ai/ha Postemergence) was 40; in [1] (125 g ai/ha Postemergence) it was 90. The “Plant response rating … Soybean” value in the assay with soybean (Glycine max) (31 g ai/ha Preemergence) came out at 0; with soybean (Glycine max) (125 g ai/ha Preemergence), 90. For the same compound, the “Plant response rating, Ducksalad” value in assay [2] amounted to 95. The “Horseweed plant response rating” value in assay [3] (31 g ai/ha Postemergence) is given as 20; in [3] (125 g ai/ha Postemergence), 80. Further, the “Plant response rating … Palmer” value in [4] (31 g ai/ha Preemergence) stood at 80; in assay [4] (125 g ai/ha Preemergence), 100. The figures for the “Plant response rating … Wild” value in assay [5] (31 g ai/ha Preemergence) and in assay [5] (125 g ai/ha Preemergence) were 0 and 30, respectively. Besides, the “Plant response rating … Blackgrass” value is given as 20 in assay [6] (31 g ai/ha Preemergence) and 70 in [6] (125 g ai/ha Preemergence). Besides, the figures for the “Plant response rating … Ragweed” value in assay [7] (31 g ai/ha Preemergence) and in [7] (125 g ai/ha Preemergence) were 10 and 60, respectively. The “Corn plant response rating” value in the assay on corn (Zea mays) (31 g ai/ha Postemergence) is 20; with corn (Zea mays) (125 g ai/ha Postemergence), 90.

The values are drawn from patent US20240158348A1, “HERBICIDAL CYCLIC AMIDES N-SUBSTITUTED WITH A HALOALKYLSULFONYLANILIDE GROUP” (FMC Corporation, priority 2021, published 2024).
